Assay results taken from patent US10941157B2, “Pesticidal compositions and uses thereof” (Gilead Apollo, LLC, priority 2015, dated 2021).
Values after ≈ are worked out from the molar mass of the structure shown.

What was measured:
Type in all cases: cell-based
[1] = tested on: Collectotrichum graminicola (Cg); experiment: In vitro pathogen growth inhibition assay, Cg; settings: 48 h, ≥90% inhibition; 48 hours vs 2% DMSO control; read-out: Compound Concentration (ppm) sufficient for ≥90% inhibition of growth, Cg
Method: (§1) A growth inhibition assay was conducted to determine the ability of compounds to control the growth of fungal pathogens, such as Botrtyis cinerea (Bc), Collectotrichum graminicola (Cg), Diplodia maydis (Dm), Fusarium moniliforme (Fm), Fusarium virguliforme (Fv), Phytophthora capsici (Pc), Rhizoctonia solani (Rs), and Septoria tritici (St). The compounds listed in Table 1 were each dissolved in DMSO at 2.5 mg/ml to produce compound stock solutions (“stocks”). […] Negative controls on each plate included 2% DMSO, water, and a blank (media+2% DMSO). Fungal spores were isolated from previously sub-cultured plates of Botrtyis cinerea (Bc), Collectotrichum graminicola (Cg), Diplodia maydis (Dm), Fusarium moniliforme (Fm), Fusarium virguliforme (Fv), Phytophthora capsici (Pc), and Septoria tritici (St). The isolated spores were diluted to individual concentrations with a 17% V8 liquid media. For Rhizoctonia solani (Rs), 1.5 mm mycelial plugs were used in place of spores and ¼ Potato Dextrose Broth (PDB) was used for dilution. The spore concentrations and plug sizes were based on growth curves generated at 48 hours for each pathogen. In a second 96-well plate, the spores or mycelial plugs, media, diluted compound solutions, and controls were combined. Once the compound was added, a true final concentration of compound in each well was measured by an OD600 reading, which adjusted for any compound precipitation that might have occurred in the well. Plate readings were repeated at both 24 and 48 hours. The blank negative control was used as a background subtraction. Additional visual ratings were performed at both 24 and 48 hours for checking on precipitation and confirming efficacy. […] Both tables list the concentration of each compound that was sufficient to ≥90% inhibition of growth for each of the fungal pathogens listed above. In addition, some of compounds were tested in a yeast growth inhibition assay for Saccharomyces cerevisiae (Sc). Table 2 lists the concentration of the tested compound that was sufficient to ≥75% inhibition of Saccharomyces cerevisiae (Sc).

[2] = tested on: Phytophthora capsici (Pc); experiment: In vitro pathogen growth inhibition assay, Pc; settings: 48 h, ≥90% inhibition, 48 hours vs 2% DMSO control, read-out: Compound Concentration (ppm) sufficient for ≥90% inhibition of growth, Pc
Method: as §1

Diplodia maydis (Dm) = experiment: In vitro pathogen growth inhibition assay, Dm; settings: Stenocarpella maydis, 48 h, ≥90% inhibition; 48 hours vs 2% DMSO control; read-out: Compound Concentration (ppm) sufficient for ≥90% inhibition of growth, Dm
Method: as §1

Botrtyis cinerea (Bc) = experiment: In vitro pathogen growth inhibition assay, Bc; settings: 48 h, ≥90% inhibition; 48 hours vs 2% DMSO control; read-out: Compound Concentration (ppm) sufficient for ≥90% inhibition of growth, Bc
Method: as §1

[3] = tested on: Fusarium moniliforme (Fm); experiment: In vitro pathogen growth inhibition assay, Fm; settings: Fusarium verticillioides; ≥90% inhibition; 48 hours vs 2% DMSO control; read-out: Compound Concentration (ppm) sufficient for ≥90% inhibition of growth, Fm
Method: as §1

Rhizoctonia solani (Rs) = experiment: In vitro pathogen growth inhibition assay, Rs (mycelial plugs); settings: Rhizoctonia solani, 48 h, ≥90% inhibition; mycelial plugs; 48 hours vs 2% DMSO control; read-out: Compound Concentration (ppm) sufficient for ≥90% inhibition of growth, Rs
Method: as §1

Septoria tritici (St) = experiment: In vitro pathogen growth inhibition assay, St; settings: Zymoseptoria tritici, 48 h, ≥90% inhibition; 48 hours vs 2% DMSO control; read-out: Compound Concentration (ppm) sufficient for ≥90% inhibition of growth, St
Method: as §1

[4] = tested on: Fusarium virguliforme (Fv); experiment: In vitro pathogen growth inhibition assay, Fv; settings: ≥90% inhibition, 48 hours vs 2% DMSO control, read-out: Compound Concentration (ppm) sufficient for ≥90% inhibition of growth, Fv
Method: as §1

| Structure (SMILES) | IC90 [1] [µg/mL] | IC90 [2] [µg/mL] | IC90 (Diplodia maydis (Dm)) [µg/mL] | IC90 (Botrtyis cinerea (Bc)) [µg/mL] | IC90 [3] [µg/mL] | IC90 (Rhizoctonia solani (Rs)) [µg/mL] | IC90 (Septoria tritici (St)) [µg/mL] | IC90 [4] [µg/mL] |
| --- | --- | --- | --- | --- | --- | --- | --- | --- |
| COc1ccccc1[C@H](Cn1c(=O)n(C(C)(C)C(N)=O)c(=O)c2c(C)c(-n3nccn3)sc21)OC1CCOCC1 [Compound I-031] | 10 (≈ 17.6 µM) | > 50 | 10 (≈ 17.6 µM) | 2 (≈ 3.52 µM) | 0.08 (≈ 0.141 µM) | 10 (≈ 17.6 µM) | > 50 | 10 (≈ 17.6 µM) |
| CCNC(=O)C(C)(C)n1c(=O)c2c(C)c(-n3nccn3)sc2n(C[C@H](OC2CCOCC2)c2ccccc2OC)c1=O [Compound I-032] | ≥ 2 | > 50 | 10 (≈ 16.8 µM) | 0.4 (≈ 0.67 µM) | 0.08 (≈ 0.134 µM) | 10 (≈ 16.8 µM) | > 50 | 10 (≈ 16.8 µM) |
| COc1ccccc1[C@H](Cn1c(=O)n(C(C)(C)C(=O)N2CCCCC2)c(=O)c2c(C)c(-n3nccn3)sc21)OC1CCOCC1 [Compound I-033] | ≥ 0.4 | > 50 | ≥ 0.4 | 0.4 (≈ 0.628 µM) | 0.08 (≈ 0.126 µM) | 0.08 (≈ 0.126 µM) | > 10 | 0.4 (≈ 0.628 µM) |
| COc1ccc(F)cc1[C@H](Cn1c(=O)n(C(C)(C)C(=O)N2CCCCC2)c(=O)c2c(C)c(-n3nccn3)sc21)OC1CCOCC1 [Compound I-036] | 0.08 (≈ 0.122 µM) | > 50 | ≥ 0.08 | 0.4 (≈ 0.611 µM) | 0.08 (≈ 0.122 µM) | 0.08 (≈ 0.122 µM) | ≥ 2 | 0.4 (≈ 0.611 µM) |
| COc1ccc(F)cc1[C@H](Cn1c(=O)n(C(C)(C)C(=O)N2CCCC2)c(=O)c2c(C)c(-n3nccn3)sc21)OC1CCOCC1 [Compound I-037] | ≥ 0.08 | 10 (≈ 15.6 µM) | ≥ 0.08 | ≥ 0.4 | 0.08 (≈ 0.125 µM) | 0.08 (≈ 0.125 µM) | ≥ 2 | 0.4 (≈ 0.624 µM) |
| COc1ccc(F)cc1[C@H](Cn1c(=O)n(C(C)(C)C(=O)NC2CCC2)c(=O)c2c(C)c(-n3nccn3)sc21)OC1CCOCC1 [Compound I-038] | 0.4 (≈ 0.624 µM) | 10 (≈ 15.6 µM) | 0.4 (≈ 0.624 µM) | 0.4 (≈ 0.624 µM) | 0.08 (≈ 0.125 µM) | 0.08 (≈ 0.125 µM) | ≥ 2 | 0.4 (≈ 0.624 µM) |
| COc1ccc(F)cc1[C@H](Cn1c(=O)n(C(C)(C)C(=O)NC2CCCCC2)c(=O)c2c(C)c(-n3nccn3)sc21)OC1CCOCC1 [Compound I-039] | 2 (≈ 2.99 µM) | > 50 | 0.4 (≈ 0.598 µM) | 0.4 (≈ 0.598 µM) | 0.08 (≈ 0.12 µM) | 0.4 (≈ 0.598 µM) | ≥ 2 | 0.4 (≈ 0.598 µM) |
| COc1ccc(F)cc1[C@H](Cn1c(=O)n(C(C)(C)C(=O)NCC(C)C)c(=O)c2c(C)c(-n3nccn3)sc21)OC1CCOCC1 [Compound I-040] | ≥ 0.4 | > 50 | ≥ 0.4 | 0.4 (≈ 0.622 µM) | 0.08 (≈ 0.124 µM) | 2 (≈ 3.11 µM) | ≥ 10 | 0.4 (≈ 0.622 µM) |
| COc1ccccc1[C@H](Cn1c(=O)n(C(C)(C)C(=O)NCC(C)C)c(=O)c2c(C)c(-n3nccn3)sc21)OC1CCOCC1 [Compound I-041] | 2 (≈ 3.2 µM) | > 50 | ≥ 2 | 0.4 (≈ 0.64 µM) | 0.08 (≈ 0.128 µM) | 0.08 (≈ 0.128 µM) | > 10 | 2 (≈ 3.2 µM) |
| COc1ccccc1[C@H](Cn1c(=O)n(C(C)(C)C(=O)NC2CCC2)c(=O)c2c(C)c(-n3nccn3)sc21)OC1CCOCC1 [Compound I-042] | ≥ 0.4 | ≥ 10 | ≥ 0.4 | 0.4 (≈ 0.642 µM) | 0.08 (≈ 0.128 µM) | 0.08 (≈ 0.128 µM) | ≥ 10 | 0.4 (≈ 0.642 µM) |
| COc1ccccc1[C@H](Cn1c(=O)n(C(C)(C)C(=O)NC2CCCCC2)c(=O)c2c(C)c(-n3nccn3)sc21)OC1CCOCC1 [Compound I-043] | > 2 | > 10 | 0.4 (≈ 0.615 µM) | 0.4 (≈ 0.615 µM) | 0.08 (≈ 0.123 µM) | 0.4 (≈ 0.615 µM) | > 10 | 2 (≈ 3.07 µM) |
| COc1ccc(F)cc1[C@H](Cn1c(=O)n(C(C)(C)C(=O)N2CCCC2)c(=O)c2c(C)c(-n3cccn3)sc21)OC(C)C [Compound I-044] | 0.4 (≈ 0.669 µM) | > 50 | 2 (≈ 3.35 µM) | 0.4 (≈ 0.669 µM) | 0.08 (≈ 0.134 µM) | 0.4 (≈ 0.669 µM) | > 50 | 0.4 (≈ 0.669 µM) |
| COc1ccc(F)cc1[C@H](Cn1c(=O)n(C(C)(C)C(=O)N2CCCC2)c(=O)c2c(C)c(-n3cccn3)sc21)OC1CCOCC1 [Compound I-045] | ≥ 0.4 | > 50 | ≥ 2 | 2 (≈ 3.13 µM) | 0.08 (≈ 0.125 µM) | 2 (≈ 3.13 µM) | > 50 | 10 (≈ 15.6 µM) |
| COc1ccccc1[C@H](Cn1c(=O)n(C(C)(C)C(=O)N2CCCC2)c(=O)c2c(C)c(-n3cccn3)sc21)OC(C)C [Compound I-046] | 2 (≈ 3.45 µM) | > 50 | 2 (≈ 3.45 µM) | 2 (≈ 3.45 µM) | 0.08 (≈ 0.138 µM) | 0.4 (≈ 0.69 µM) | ≥ 50 | 0.4 (≈ 0.69 µM) |
| COc1ccccc1[C@H](Cn1c(=O)n(C(C)(C)C(=O)N2CCCCC2)c(=O)c2c(C)c(-n3cccn3)sc21)OC(C)C [Compound I-047] | ≥ 2 | > 50 | 2 (≈ 3.37 µM) | 0.4 (≈ 0.674 µM) | 0.08 (≈ 0.135 µM) | 2 (≈ 3.37 µM) | > 50 | 0.4 (≈ 0.674 µM) |
| COc1ccc(F)cc1[C@H](Cn1c(=O)n(C(C)(C)C(=O)NC(C)C)c(=O)c2c(C)c(-n3cccn3)sc21)OC1CCC(=O)CC1 [Compound I-048] | 10 (≈ 15.6 µM) | > 50 | 2 (≈ 3.13 µM) | 0.4 (≈ 0.625 µM) | 0.08 (≈ 0.125 µM) | 2 (≈ 3.13 µM) | > 50 | 2 (≈ 3.13 µM) |
| COc1ccc(F)cc1[C@H](Cn1c(=O)n(C(C)(C)C(=O)NC(C)C)c(=O)c2c(C)c(-n3cccn3)sc21)O[C@H]1CC[C@@H](O)CC1 [Compound I-049] | 50 (≈ 77.9 µM) | > 50 | 2 (≈ 3.12 µM) | 0.4 (≈ 0.623 µM) | 0.08 (≈ 0.125 µM) | 2 (≈ 3.12 µM) | > 50 | 2 (≈ 3.12 µM) |
